In US20230372375A1, “SGLT-2 INHIBITOR SARCOSINE CO-CRYSTAL, PREPARATION METHOD THEREFOR AND USE THEREOF” (Beijing Creatron Institute of Pharmaceutical Research Co. …, priority 2020, published 2023):

Assays:
[1] = Influencing factors test (physical and chemical stability) of canagliflozin crystal forms, Test Example 2; type: physicochemical; design: Impurity RRT0.73 content / Impurity RRT0.93 content / Impurity RRT1.12 content / Impurity RRT1.17 content / Impurity RRT2.25 content / Impurity RRT2.28 content / Impurity RRT0.57 content / Impurity RRT0.67 content: unit not given here
Description: The canagliflozin-sarcosine cocrystal and canagliflozin hemihydrate (original crystal form) were tested for influencing factors.

[2] = 1 g cannot be dissolved in 10000 ml; cited from earlier work
[3] = Directly exposed at 60° C. for 10 days
[4] = Directly exposed at 5000 LX for 10 days
[5] = Directly exposed at RH75% for 10 days

Impurity RRT0.57 content ([1]; 0 day): 0.01 | Impurity RRT0.67 content ([1]; 0 day): 0.01 | Impurity RRT0.93 content ([1]; 0 day): 0.01 | Impurity RRT1.17 content ([1]; 0 day): 0.01 | Impurity RRT2.25 content ([1]; 0 day): 0.01 | Impurity RRT2.28 content ([1]; 0 day): 0.01 | Number of impurities ([1]; 0 day): 6 | Property (appearance) ([1]; 0 day): White | Total content of impurities ([1]; 0 day): 0.06% | Impurity RRT0.57 content [1, 3]: 0.01 | Impurity RRT0.67 content [1, 3]: 0.01 | Impurity RRT0.93 content [1, 3]: 0.01 | Impurity RRT1.17 content [1, 3]: 0.01 | Impurity RRT2.25 content [1, 3]: 0.01 | Impurity RRT2.28 content [1, 3]: 0.01 | Number of impurities [1, 3]: 6 | Property (appearance) [1, 3]: White | Total content of impurities [1, 3]: 0.05% | Impurity RRT0.57 content [1, 4]: 0.02 | Impurity RRT0.73 content [1, 4]: 0.01 | Impurity RRT0.93 content [1, 4]: 0.01 | Impurity RRT1.12 content [1, 4]: 0.01 | Impurity RRT1.17 content [1, 4]: 0.01 | Impurity RRT2.25 content [1, 4]: 0.01 | Impurity RRT2.28 content [1, 4]: 0.01 | Number of impurities [1, 4]: 7 | Property (appearance) [1, 4]: White | Total content of impurities [1, 4]: 0.08% | Impurity RRT0.57 content [1, 5]: 0.01 | Impurity RRT0.67 content [1, 5]: 0.01 | Impurity RRT0.93 content [1, 5]: 0.02 | Impurity RRT1.17 content [1, 5]: 0.01 | Impurity RRT2.25 content [1, 5]: 0.01 | Impurity RRT2.28 content [1, 5]: 0.01 | Number of impurities [1, 5]: 6 | Property (appearance) [1, 5]: White | Total content of impurities [1, 5]: 0.07% | Weight gained ([1]; high humidity of RH75% for 10 days): about 2.1% | Weight lost ([1]; high temperature of 60° C. for 10 days): about 1.0% | New impurities detected (number) ([1]; light irradiation of 5000LX for 10 days): 1
Structure (SMILES): Cc1ccc([C@@H]2O[C@H](CO)[C@@H](O)[C@H](O)[C@H]2O)cc1Cc1ccc(-c2ccc(F)cc2)s1.O [canagliflozin hemihydrate]
Solubility in water [2]: almost insoluble in water
